Data taken from patent publication US20230330278A1, “METHODS FOR RADIOLABELLING PSMA BINDING LIGANDS AND THEIR KITS” (Novartis AG, priority 2020, published 2023).

Assays:
[1] = Radiochemical purity and stability of 68GaPSMA-R2 by HPLC; assay type: physicochemical; conditions: for stability to the radiolytic degradation / radiochemical purity: up to 4 hours; for stability to the radiolytic degradation: without gentisic acid; for radiochemical purity: without the gentisic acid
Description: Radiochemical purity and identification of ^68GaPSMA-R2 by HPLC
Chromatographic conditions
The molecule was labelled with ^68Ga using E&Z generator with an activity in the range of […]. The labelling was performed at 95° C. for 7 minutes with Gallium buffer (pH 3.2-3.8). Experiments were performed by testing different amount of gentisic acid as radiolytic scavenger and peptide amounts (15 μg and 30 μg). In all tests 20 mg of mannitol were added as cake forming.

tumor models = conditions: current specific activity
[2] = cited from earlier work

O=C([O-])CN1CCN(CC(=O)[O-])CCN(CC(=O)NCCCCCC(=O)N(CCCC[C@H](NC(=O)N[C@@H](CCC(=O)O)C(=O)O)C(=O)O)Cc2ccc(Br)cc2)CCN(CC(=O)[O-])CC1.[68Ga+3] [68GaPSMA-R2]
stability to the radiolytic degradation [1]: good stability to the radiolytic degradation
stability to the radiolytic degradation ([1]; listed as 68Ga-PSMA-R2): intrinsic stability to the radiolytic degradation
radiochemical purity [1]: higher than 92%
radiochemical purity ([1]; listed as 68Ga-PSMA-R2): over 92%
68Ga free ([1]; when gentisic acid is not used in the formulation): under 2%
biodistribution profile (tumor models): favourable biodistribution profile in tumor models (major uptake in tumor and kidneys, relatively low uptake in other organs)

O=C(O)CCC(=O)O [Succinic acid]
pKa (20° C.) [2]: 4.22
